Reference: US20190358247A1 (The Medical College of Wisconsin, Inc., priority 2016, published 2019)

Test system: MiaPaCa-2 cells
Experiment: Intracellular uptake by LC-MS/MS
Protocol: Cells were grown on 10 cm dishes and treated with the compounds for 24 h in full media.
Next we investigated the relative uptake of different Mito-Met analogs (Mito-Met2, Mito-Met6, and Mito-Met10) and phenformin in MiaPaCa-2 cells (FIG. 12D). Cells were treated with respective Mito-Met analog (1 μM) for 1 h. Cells were lysed after washing and analyzed for Mito-Met analog by LC-MS.

Br.N=C(N)NC(=N)NCCCCCCCCCC[P+](c1ccccc1)(c1ccccc1)c1ccccc1 [Mito-Met10]
difference in intracellular uptake and retention, MiaPaCa-2 and MCF-10A cells (LC-MS): four-fold | cellular uptake relative to phenformin (MiaPaCa-2, LC-MS): ~100 fold
